From patent US20110118127A1, “MARKER GENES FOR SCREENING OF DRUG-INDUCED TOXICITY IN HUMAN CELLS AND SCREENING METHOD USING THE SAME” (priority 2009, published 2011)
Values after ≈ are worked out from the molar mass of the structure shown. Where two headings read alike, the source gives them in different places.

Key:
JEG-3 [1] = conditions: human, 48 h
Experimental: (§1) Human cell lines, BEAS-2B (ATCC, USA), JEG-3 (Korean Cell Line Bank, Korea) and HK-2 (Korean Cell Line Bank, Korea) were cultured in T 75 flask containing DMEM (Gibco-BRL, USA) supplemented with 10% FBS at the concentration of 5×10^5 cells/ml. […] Those drugs were dissolved in DMSO and water. The concentration of vehicle was up to 0.1% in every experiment.
(§2) MTT assay was performed with BEAS-2B, JEG-3, HK-2, THLE-3 and HUVEC according to the method of Mossman et al (J. Immunol. Methods, 65, 55-63, 1983). The cells (Table 2) in a 24-well plate were treated with each drug dissolved in DMSO or water. 48 hours later, 5 mg/ml of MTT (3-[4,5-dimethylthiazol-2-yl]-2,5-diphenyltetra zolium bromide) was added thereto, followed by culture at 37 for 3 hours. Then, the medium was eliminated and the formed formazan crystal was dissolved in 500 μl of DMSO. The mixture was aliquoted in a 96-well plate and OD54o was measured.
(§3) MTT assay was performed with BEAS-2B, JEG-3, HK-2 and HepG2 according to the method of Mossman et al (J. Immunol. Methods, 65, 55-63, 1983). The cells (Table 2) in a 24-well plate were treated with each drug dissolved in DMSO or water. 24 and 48 hours later, 5 mg/μl of MTT (3-[4,5-dimethylthiazol-2-yl]-2,5-diphenyltetra zolium bromide) was added thereto, followed by culture at 37 for 3 hours. Then, the medium was eliminated and the formed formazan crystal was dissolved in 500 μl of DMSO. The mixture was aliquoted in a 96-well plate and OD540 was measured.

in vitro [2] = conditions: human
Experimental: (§4) Human cell lines, BEAS-2B (ATCC, USA), JEG-3 (Korean Cell Line Bank, Korea) and HK-2 (Korean Cell Line Bank, Korea) were cultured in T 75 flask containing DMEM (Gibco-BRL, USA) supplemented with 10% FBS at the concentration of 5×10^5 cells/ml. THLE-3 cells were cultured in BEGM (Gibco-BRL, USA) supplemented with 10% FBS. HUVEC cells (ATCC, USA) were cultured in T 75 flask containing EGM-2 (CAMBREX, USA) supplemented with 5% FBS at the concentration of 5×10^5 cells/ml. […] Those drugs were dissolved in DMSO and water. The concentration of vehicle was up to 0.1% in every experiment.
(§5) MTT assay was performed with BEAS-2B, JEG-3, HK-2, THLE-3 and HUVEC according to the method of Mossman et al (J. Immunol. Methods, 65, 55-63, 1983). The cells (Table 2) in a 24-well plate were treated with each drug dissolved in DMSO or water. […] Then, the medium was eliminated and the formed formazan crystal was dissolved in 500 μl of DMSO. The mixture was aliquoted in a 96-well plate and OD54o was measured.

[3] = Cytotoxicity test (MTT assay) in THLE-3; conditions: human
Experimental: as §4, §5

HepG2 = assay: Cytotoxicity test (MTT assay) in HepG2; assay type: cell-based, human; conditions: Table 11; HepG2 40 × 10^4 cells/well, 48 h; read-out: Cytotoxicity IC20 Conc.
Experimental: (§6) The cells (Table 2) in a 24-well plate were treated with each drug dissolved in DMSO or water. 24 and 48 hours later, 5 mg/μl of MTT (3-[4,5-dimethylthiazol-2-yl]-2,5-diphenyltetra zolium bromide) was added thereto, followed by culture at 37 for 3 hours. Then, the medium was eliminated and the formed formazan crystal was dissolved in 500 μl of DMSO. The mixture was aliquoted in a 96-well plate and OD540 was measured.

HK-2 [4] = assay: Cytotoxicity test (MTT assay) in HK-2; conditions: HK-2 2.3 × 10^4 cells/well, 24 h; survival inhibited 30%
Experimental: as §1, §2
(§7) MTT assay was performed with BEAS-2B, JEG-3, HK-2 and HepG2 according to the method of Mossman et al (J. Immunol. Methods, 65, 55-63, 1983). The cells (Table 2) in a 24-well plate were treated with each drug dissolved in DMSO or water. 24 and 48 hours later, 5 mg/μl of MTT (3-[4,5-dimethylthiazol-2-yl]-2,5-diphenyltetra zolium bromide) was added thereto, followed by culture at 37 for 3 hours. […] The mixture was aliquoted in a 96-well plate and OD540 was measured.

[5] = Cytotoxicity test (MTT assay) in HUVEC; assay type: cell-based; conditions: human, HUVEC 10 × 10^4 cells/well, survival inhibited 20%, read-out: Cytotoxicity IC20 Conc.
Experimental: as §4, §5

JEG-3 [6] = assay: Cytotoxicity test (MTT assay) in JEG-3; conditions: Table 11; JEG-3 3 × 10^4 cells/well, 48 h
Experimental: as §1, §2, §3

in vitro [7] = conditions: human; remark: listed apart in the source
HK-2 [8] = conditions: human, 24 h
Experimental: as §1, §2, §7

[9] = Cytotoxicity test (MTT assay) in HepG2; assay type: cell-based, human; conditions: human
Experimental: as §6

THLE-3 = assay: Cytotoxicity test (MTT assay) in THLE-3; conditions: read-out: Cytotoxicity IC20 Conc.; THLE-3 3 × 10^4 cells/well, 3 h; survival inhibited 20%
Experimental: as §4, §5

For `CCCC(CCC)C(=O)O` [Valproic acid], the “Cytotoxicity IC30 Conc.” value (JEG-3 [1]) was 7380 µM.

`COS(C)(=O)=O` [Methylmethanesulfonate, methylmethanesulfonate] gave an IC20 at 3 h (in vitro [2]) of 510 µM.

In the case of `CN(N=O)C(N)=O` [N-nitroso-N-methylurea], the IC20 at 3 h [3] is reported as 2090 µM.

`CC(=O)Nc1ccc(O)cc1` [Acetaminophene] showed an IC20 (HepG2) of 11000 µM.

In the case of `O=C1CCC(N2C(=O)c3ccccc3C2=O)C(=O)N1` (stereo not shown) [Thalidomide], the “Cytotoxicity IC30 Conc.” value (JEG-3 [1]) is reported as 4283 µM.

With Gentamycin the “Cytotoxicity IC30 Conc.” value (HK-2 [4]) was 3440 µg/mL.

With `COc1cccc2c1C(=O)c1c(O)c3c(c(O)c1C2=O)C[C@@](O)(C(C)=O)C[C@@H]3O[C@H]1C[C@H](N)[C@H](O)[C@H](C)O1` [Daunorubicin] the IC20 at 48 h [5] was 0.191 µg/mL (≈ 0.362 µM).

With `CC(=O)CC(c1ccccc1)c1c(O)c2ccccc2oc1=O` (stereo not shown) [Warfarin] the “Cytotoxicity IC30 Conc.” value (JEG-3 [6]) was 8160 µM.

Work on `O=[N+]([O-])c1cc[n+]([O-])c2ccccc12` [4-nitroquinoline-N-oxide] yielded an IC20 at 3 h [3] of 0.83 µM.

Work on `CCCCc1oc2ccccc2c1C(=O)c1cc(I)c(OCCN(CC)CC)c(I)c1` [Amiodarone] yielded an IC20 at 48 h (in vitro [7]) of 29.4 µM.

For `CN(Cc1cnc2nc(N)nc(N)c2n1)c1ccc(C(=O)N[C@@H](CCC(=O)O)C(=O)O)cc1` [Methotrexate], the “Cytotoxicity IC30 Conc.” value (JEG-3 [1]) was 4750 µM and the IC20 at 48 h (in vitro [7]) was 0.144 µM.

For `CC(C)Cc1ccc(C(C)C(=O)O)cc1` (stereo not shown) [Ibuprofen], the “Cytotoxicity IC30 Conc.” value (HK-2 [8]) was 1650 µg/mL.

In the case of `O=C1CN(/N=C/c2ccc([N+](=O)[O-])o2)C(=O)N1` [Nitrofurantoin], the IC20 at 48 h (in vitro [7]) is reported as 89.5 µM.

With `COc1cccc2c1C(=O)c1c(O)c3c(c(O)c1C2=O)C[C@@](O)(C(=O)CO)C[C@@H]3O[C@H]1C[C@H](N)[C@H](O)[C@H](C)O1` [Doxorubicin] the IC20 at 48 h [5] was 0.083 µg/mL (≈ 0.153 µM).

`c1ccc2c(c1)cc1ccc3cccc4ccc2c1c34` [Benzo(a)pyrene] gave an IC20 at 48 h [9] of 8.35 µM.

`O=[N+]([O-])c1ccc2c(c1)Cc1ccccc1-2` [2-nitrofluorene] gave an IC20 at 3 h (in vitro [2]) of 80.8 µM.

`NC(=O)N1c2ccccc2C=Cc2ccccc21` [Carbamazepine] gave an IC20 at 48 h (in vitro [7]) of 324 µM.

For `NC(=O)/C(=C\c1ccc([N+](=O)[O-])o1)c1ccco1` [Furylfuramide], the IC20 (THLE-3) was 243 µM.
